# Data taken from patent US9828350B2, “5,6-dihydro-2H-[1,4]oxazin-3-yl-amine derivatives useful as inhibitors of beta-secretase (BACE)” (Janssen Pharmaceutica NV, priority 2010, dated 2017).
# Structures can show the parent of a compound that is named as a salt.
# What was measured:
# [1] = molecular target: recombinant BACE1 protein (Homo sapiens, UniProt P56817); experiment: Biochemical FRET based assay; conditions: recombinant BACE1 1 μg/ml, 120 minutes at room temperature, pH 5.0; for IC50: read-out: Biochemical FRET based assay pIC50 (converted)
# In short: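 Proteolysis was read as the rise in donor fluorescence (320 nm excitation, 405 nm emission) from T0 to T120, expressed in RFU. The reaction ran 120 minutes at room temperature at pH 5.0 in citrate buffer with 4% DMSO, using […] quenched Swedish APP peptide and 1 μg/ml BACE1.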
# Abeta total = experiment: Cellular αLisa assay in SKNBE2 cells, Abeta total; format: cell-based, human; conditions: incubated for 18 hours; for IC50: Homo sapiens, SKNBE2, 18 h, read-out: Cellular αLisa assay in SKNBE2 cells Abetatotal pIC50 (converted)
# In short: (§1)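 Secreted Abeta levels were measured by sandwich αLisa, pairing biotin-AbN/25 donor beads with Ab4G8 acceptor beads for total Abeta or cAb42/26 for Abeta 1-42, read at 615 nm after 650 nm excitation following 1 hour. Cells were SKNBE2 expressing wild-type hAPP695, exposed to compound for 18 hours.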
# Abeta 1-42 = experiment: Cellular αLisa assay in SKNBE2 cells, Abeta 1-42; format: cell-based, human; conditions: incubated for 18 hours; for IC50: Homo sapiens, SKNBE2, 18 h, read-out: Cellular αLisa assay in SKNBE2 cells Abeta 42 pIC50 (converted)
# In short: as §1
# Chain of recombinant BACE1 protein (P56817 46-501): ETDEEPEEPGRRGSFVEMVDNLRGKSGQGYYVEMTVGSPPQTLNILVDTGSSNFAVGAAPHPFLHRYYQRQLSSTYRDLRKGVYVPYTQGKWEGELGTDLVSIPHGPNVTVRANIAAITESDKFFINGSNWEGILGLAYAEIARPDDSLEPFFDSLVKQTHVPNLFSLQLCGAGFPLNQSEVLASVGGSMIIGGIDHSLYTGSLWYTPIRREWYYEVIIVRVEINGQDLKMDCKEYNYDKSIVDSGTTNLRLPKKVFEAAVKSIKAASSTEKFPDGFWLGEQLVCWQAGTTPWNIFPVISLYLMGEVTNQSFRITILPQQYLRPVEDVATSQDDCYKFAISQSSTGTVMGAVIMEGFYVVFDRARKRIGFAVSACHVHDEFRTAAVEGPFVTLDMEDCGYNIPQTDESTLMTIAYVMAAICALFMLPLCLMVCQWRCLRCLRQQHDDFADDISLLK
Compound,melting point,IC50 [1],IC50 (Abeta total),IC50 (Abeta 1-42),Cellular αLisa assay in SKNBE2 cells Abetatotal pIC50 (Abeta total),Cellular αLisa assay in SKNBE2 cells Abeta 42 pIC50 (Abeta 1-42),Biochemical FRET based assay pIC50 [1]
"CC1(c2cccc(-c3ccccc3)c2)COCC(N)=N1 (racemic) (as salt: TFA) [Compound 1, rac-5-biphenyl-3-yl-5-methyl-5,6-dihydro-2H-1,4-oxazin-3-amine trifluoroacetate salt]",217.2 °C,–,–,–,–,–,–
"CC1(c2cccc(-c3cc(Cl)cc(Cl)c3)c2)COCC(N)=N1 (racemic) [Compound 2, rac-5-(3′,5′-dichlorobiphenyl-3-yl)-5-methyl-5,6-dihydro-2H-1,4-oxazin-3-amine]",197 °C,1910 nM,617 nM,724 nM,–,–,–
"CC1(c2cccc(NC(=O)c3ncccc3F)c2)COCC(N)=N1 (racemic) [Compound 6, rac-N-[3-(5-amino-3-methyl-3,6-dihydro-2H-1,4-oxazin-3-yl)phenyl]-3-fluoropyridine-2-carboxamide]",155.6 °C,5130 nM,457 nM,513 nM,–,–,–
"COc1cncc(-c2cccc(C3(C(F)(F)F)COCC(N)=N3)c2)c1 (racemic) [Compound 152, rac-5-[3-(5-methoxypyridin-3-yl)phenyl]-5-(trifluoromethyl)-5,6-dihydro-2H-1,4-oxazin-3-amine]",202.5 °C,3890 nM,3160 nM,3160 nM,–,–,–
"NC1=NC(c2cccc(NC(=O)c3ccc(Cl)cn3)c2)(C2CC2)COC1 (racemic) [Compound 153, rac-N-[3-(5-Amino-3-cyclopropyl-3,6-dihydro-2H-1,4-oxazin-3-yl)phenyl]-5-chloropyridine-2-carboxamide]",161.5 °C,89.1 nM,13.2 nM,11.5 nM,–,–,–
"C[C@@]1(c2cccc(NC(=O)c3ccc(Cl)cn3)c2)N=C(N)CO[C@H]1F (single isomer, unassigned) [Compound 85, (S*,S*)—N-[3-(5-amino-2-fluoro-3-methyl-3,6-dihydro-2H-1,4-oxazin-3-yl)phenyl]-5-chloropyridine-2-carboxamide]",160.8 °C,6460 nM,851 nM,871 nM,–,–,–
"CC1(c2cccc(NC(=O)c3ccc(Cl)cn3)c2)N=C(N)COC1(F)C(F)(F)F (single isomer, unassigned) [Compound 112]",207.3 °C,–,–,–,5.71,5.68,–
"CC1(c2cc(NC(=O)c3ncc(Cl)cc3Cl)ccc2F)N=C(N)COC1F (single isomer, unassigned) [Compound 128]",93.3 °C,5750 nM,–,–,6.02,6.0,–
"CC1(c2cccc(NC(=O)c3ncc(Cl)cc3F)c2)N=C(N)COC1(F)C(F)(F)F (single isomer, unassigned) [Compound 172]",180.17 °C,513 nM,–,–,6.81,6.74,–
"CC1(c2cccc(NC(=O)c3ncc(Cl)cc3F)c2)N=C(N)COC1(F)C(F)(F)F (single isomer, unassigned) [Compound 174]",179.18 °C,> 30200 nM,–,–,<5,<5,–
"CC1(c2cccc(NC(=O)c3ccncn3)c2)N=C(N)COC1(F)C(F)(F)F (single isomer, unassigned) [Compound 187]",189.64 °C,10200 nM,–,–,5.95,5.92,–
"CC1(c2cccc(NC(=O)c3ccncn3)c2)N=C(N)COC1(F)C(F)(F)F (single isomer, unassigned) [Compound 189]",189.29 °C,> 30200 nM,–,–,<5,<5,–
COc1cncc(-c2cccc(C3(C)N=C(N)COC3F)c2)c1 (centres unmarked) [Compound 87],139.23 °C,–,–,–,6.47,6.46,5.81
C[C@]1(c2cc(NC(=O)c3ncc(Cl)cc3Cl)ccc2F)N=C(N)CO[C@@]1(F)C(F)(F)F [Compound 181],200.16 °C,26.3 nM,13.5 nM,13.5 nM,–,–,–
C[C@]1(c2cc(NC(=O)c3ccc(C#N)cn3)ccc2F)N=C(N)CO[C@@]1(F)C(F)(F)F [Compound 183],196.01 °C,40.7 nM,13.8 nM,14.5 nM,–,–,–
N#Cc1cncc(-c2cccc([C@@]3(C4CC4)N=C(N)CO[C@@H]3F)c2)c1 [Compound 311],–,1380 nM,1120 nM,1450 nM,–,–,–
Cc1cc(Br)cnc1C(=O)Nc1cccc([C@@]2(C3CC3)N=C(N)CO[C@@H]2F)c1 [Compound 313],–,16.6 nM,13.5 nM,17.8 nM,–,–,–
Cc1cc(Cl)cnc1C(=O)Nc1ccc(F)c([C@@]2(C3CC3)N=C(N)CO[C@@H]2F)c1 [Compound 315],–,81.3 nM,145 nM,170 nM,–,–,–
C[C@]1(c2cc(NC(=O)c3cnc(OCC(F)(F)F)cn3)ccc2F)N=C(N)CO[C@]1(F)C(F)(F)F [Compound 318],–,355 nM,724 nM,851 nM,–,–,–
C[C@]1(c2cc(NC(=O)c3cnc(OCC(F)(F)F)cn3)ccc2F)N=C(N)CO[C@@]1(F)C(F)(F)F [Compound 319],–,43.7 nM,69.2 nM,74.1 nM,–,–,–

# The next lines start with the values.
melting point,IC50 [1],IC50 (Abeta total),IC50 (Abeta 1-42),Cellular αLisa assay in SKNBE2 cells Abetatotal pIC50 (Abeta total),Cellular αLisa assay in SKNBE2 cells Abeta 42 pIC50 (Abeta 1-42),Biochemical FRET based assay pIC50 [1],Compound
193.3 °C,–,–,–,–,–,–,C[C@@]1(c2cccc(-c3cncnc3)c2)COC2(CC2)C(N)=N1 (as salt: fumarate) [Compound 74]
227.7 °C,9770 nM,–,–,5.46,5.46,–,"CC1(c2cc(-c3cncnc3)ccc2F)N=C(N)COC1F (single isomer, unassigned) [Compound 75]"
115.4 °C,> 30200 nM,–,–,5.34,5.43,–,"CC1(c2cccc(-c3cncnc3)c2)N=C(N)COC1F (single isomer, unassigned) [Compound 94]"
116.4 °C,1910 nM,–,–,6.48,6.47,–,"CC1(c2cc(NC(=O)c3ncc(Cl)cc3F)ccc2F)N=C(N)COC1F (single isomer, unassigned) [Compound 130]"
186.2 °C,> 30200 nM,> 10000 nM,> 10000 nM,–,–,–,"C[C@]1(c2cc(-c3cncnc3)c(F)cc2F)N=C(N)CO[C@@H]1F (single isomer, unassigned) [Compound 148, (R*,R*)-5-(2,4-difluoro-5-pyrimidin-5-ylphenyl)-6-fluoro-5-methyl-5,6-dihydro-2H-1,4-oxazin-3-amine]"
213.1 °C,2630 nM,646 nM,631 nM,–,–,–,CC1(c2cc(-c3cncnc3)c(F)cc2F)COC2(CC2)C(N)=N1 (centres unmarked) [Compound 72]
195.3 °C,22900 nM,4470 nM,3890 nM,–,–,–,CC1(c2cc(-c3cncnc3)c(F)cc2F)N=C(N)COC1F (centres unmarked) [Compound 84]
189.3 °C,2820 nM,–,–,6.14,6.19,–,CC1(c2cccc(-c3cncnc3)c2)N=C(N)COC1F (centres unmarked) [Compound 98]
204.3 °C,20900 nM,–,–,5.73,5.87,–,CC1(c2cccc(-c3cncnc3)c2)N=C(N)COC1F (centres unmarked) [Compound 99]
196.9 °C,1550 nM,224 nM,200 nM,–,–,–,COc1cncc(-c2ccc(F)c(C3(C)N=C(N)COC3C(F)(F)F)c2)c1 (centres unmarked) [Compound 105]
187.4 °C,> 30200 nM,8910 nM,8710 nM,–,–,–,C[C@]1(c2cc(-c3cncnc3)c(F)cc2F)COC2(CC2)C(N)=N1 [Compound 149]
198.43 °C,407 nM,363 nM,363 nM,–,–,–,COc1cnc(C(=O)Nc2ccc(F)c([C@@]3(C)N=C(N)CO[C@]3(F)C(F)(F)F)c2)cn1 [Compound 184]
–,3310 nM,617 nM,776 nM,–,–,–,CCC1(c2cc(-c3cncc(C#N)c3)ccc2F)N=C(N)COC1C(F)(F)F (centres unmarked) [Compound 310]
–,661 nM,2820 nM,3240 nM,–,–,–,NC1=N[C@@](c2cc(-c3cncnc3)ccc2F)(C2CC2)[C@](F)(C(F)(F)F)OC1 [Compound 312]
–,1150 nM,631 nM,724 nM,–,–,–,C[C@]1(c2cc(-c3cncc(F)c3)c(F)cc2F)N=C(N)CO[C@@H]1C(F)(F)F [Compound 316]
–,2040 nM,468 nM,550 nM,–,–,–,C[C@]1(c2cc(-c3cncc(C#N)c3)c(F)cc2F)N=C(N)CO[C@H]1C(F)(F)F [Compound 351]
